How the values were obtained:
Gal4DBD/AaEcR (DEF) = target: T1, Gal4DBD/AaEcR (DEF) (Aedes aegypti, UniProt P49880); test: cell-based; format: cell-based; details: for fold induction at 33 µM: NIH3T3, read-out: Fold Induction Average, AA_3T3V1 Assay 33 μM; for Fold Induction Average, AA_3T3V1 Assay 33 μM: 3T3 cells, 48 h, average of two wells
T1 construct: The wildtype D, E, and F domains from mosquito Aedes aegypti EcR; expressed in transfected cells; host or cells: 3T3 cells
Procedure, shortened: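 Single-dose ligand testing at 33 μM, applied in serum medium after 4 h transfection. Host was 3T3 cells carrying Gal4DBD/AaEcR (DEF) plus a 5× GAL4 RE-driven firefly luciferase reporter (pFRLuc).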

[1] = target: T2, Bombyx mori EcR (VP16-BmEcR, CVBE) (Bombyx mori, UniProt P49881); test: Z3 assay (HEK-293 clone Z3 with CVBE and 6x EcRE LacZ, β-galactosidase reporter); format: cell-based; details: average of two wells; for fold induction at 33 µM: HEK293, 48 h, read-out: Fold Induction Average, Z3V1 Assay 33 μM; for Fold Induction Average, Z3V1 Assay 33 μM: 48 h
T2 construct: expressed in transfected cells
T2 sequence (P49881 86-606): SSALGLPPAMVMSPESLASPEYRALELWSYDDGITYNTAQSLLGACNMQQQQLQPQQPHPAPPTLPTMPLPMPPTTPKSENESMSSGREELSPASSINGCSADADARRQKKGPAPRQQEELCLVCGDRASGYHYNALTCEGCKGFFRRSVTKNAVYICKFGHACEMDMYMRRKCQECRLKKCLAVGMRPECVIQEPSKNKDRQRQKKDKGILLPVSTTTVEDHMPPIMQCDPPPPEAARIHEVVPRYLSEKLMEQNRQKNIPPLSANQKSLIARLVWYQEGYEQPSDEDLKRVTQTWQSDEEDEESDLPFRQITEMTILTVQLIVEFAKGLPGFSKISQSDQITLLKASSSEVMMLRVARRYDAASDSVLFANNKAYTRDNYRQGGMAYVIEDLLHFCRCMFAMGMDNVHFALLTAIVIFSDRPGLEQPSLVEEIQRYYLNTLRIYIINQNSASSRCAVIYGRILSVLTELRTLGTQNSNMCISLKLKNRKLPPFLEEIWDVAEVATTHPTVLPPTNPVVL

CfEcR + LmUSP = CfEcR + LmUSP in 3T3 cells, reporter assayed 48 h after ligand
Protocol: 1.9—Gal4CfEcR-DEF/VP16LmRXR-EF: This construct was prepared in the same way as switch 1.1 except LmRXR-EF (SEQ ID NO: 18) was used in place of HsRXRβ-LmRXREF chimera.
(§1) To determine if any of the compounds shown in Table 1 and Table 2 can act as inducers of reporter gene activity in a transactivation assay, these compounds were tested in NIH3T3 cells transfected with pFRLUC reporter and gene expression cassettes, 1.1 to 1.8 described in Example 1. […] At 48 hr after adding ligand, the cells were harvested and reporter activity was assayed using Dual Luciferase assay kit (Promega carporation). Total relative light units (RLU) are shown. Standard methods for culture and maintenance of the cells were followed.
(§2) Transfections: DNAs corresponding to the various switch constructs outlined in Example I, specifically switches 1.1 through 1.8, were transfected into mouse NIH3T3 cells (ATCC) as follows. Cells were harvested when they reached 50% confluency and plated in 6-, 12- or 24-well plates at 125,000, 50,000, or 25,000 cells, respectively, in 2.5, 1.0, or 0.5 ml of growth medium containing 10% fetal bovine serum (FBS), respectively. The next day, the cells were rinsed with growth medium and transfected for four hours. […] For 12-well plates, 4 μl of Superfect™ was mixed with 100 μl of growth medium. 1.0 μg of reporter construct and 0.25 μg of each receptor construct of the receptor pair to be analyzed were added to the transfection mix. A second reporter construct was added [pTKRL (Promega), 0.1 μg/transfection mix] that comprises a Renilla luciferase gene operably linked and placed under the control of a thymidine kinase (TK) constitutive promoter and was used for normalization. The contents of the transfection mix were mixed in a vortex mixer and let stand at room temperature for 30 min. At the end of incubation, the transfection mix was added to the cells maintained in 400 μl growth medium. The cells were maintained at 37° C. and 5% CO2 for four hours. At the end of incubation, 500 μl of growth medium containing 20% FBS and either dimethylsulfoxide (DMSO; control) or a DMSO solution of 0.1, 1, and 10 μM ligand was added and the cells were maintained at 37° C. and 5% CO2 for 48 hours. The cells were harvested and reporter activity was assayed. The same procedure was followed for 6 and 24 well plates as well except all the reagents were doubled for 6 well plates and reduced to half for 24-well plates.
(§3) Ligands: All ligands were dissolved in DMSO and the final concentration of DMSO was maintained at 0.1% in both controls and treatments.
(§4) Reporter Assays: Cells were harvested 48 hours after adding ligands. 125, 250, or 500 μl of passive lysis buffer (part of Dual-luciferase™ reporter assay system from Promega Corporation) were added to each well of 24- or 12- or 6-well plates respectively. The plates were placed on a rotary shaker for 15 minutes. Twenty μl of lysate were assayed. Luciferase activity was measured using Dual-luciferase™ reporter assay system from Promega Corporation following the manufacturer's instructions.

DmEcR + LmUSP = target: T3, DmEcR + LmUSP (Drosophila melanogaster, UniProt P34021); test: cell-based; details: for fold induction at 10 µM: NIH3T3, read-out: Fold Induction (10 μM); for fold induction at 100 µM: NIH3T3, read-out: Fold Induction (100 μM)
T3 sequence (P34021 342-878): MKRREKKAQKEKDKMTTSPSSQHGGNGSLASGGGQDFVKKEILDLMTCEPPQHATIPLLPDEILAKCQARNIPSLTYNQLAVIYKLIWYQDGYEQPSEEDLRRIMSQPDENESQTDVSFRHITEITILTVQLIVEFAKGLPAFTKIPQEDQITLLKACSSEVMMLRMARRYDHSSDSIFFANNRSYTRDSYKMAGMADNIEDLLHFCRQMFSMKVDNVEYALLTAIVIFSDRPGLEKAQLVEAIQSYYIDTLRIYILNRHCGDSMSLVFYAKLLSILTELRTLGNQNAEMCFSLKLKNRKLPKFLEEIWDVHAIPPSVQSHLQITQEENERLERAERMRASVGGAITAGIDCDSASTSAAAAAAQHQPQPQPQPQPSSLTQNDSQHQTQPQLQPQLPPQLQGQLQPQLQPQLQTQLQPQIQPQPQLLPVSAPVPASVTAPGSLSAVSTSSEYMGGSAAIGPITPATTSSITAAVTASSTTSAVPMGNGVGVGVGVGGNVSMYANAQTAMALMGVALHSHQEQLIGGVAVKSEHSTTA
Protocol: as §1, §2, §3, §4

[2] = test system: GAL4 DBD-CfEcR(DEF)/VP16AD-MmRXRE; details: CHO 13B3 clone, 48 h, average of two wells
Excerpt: GAL4 DBD-CfEcR(DEF)/VP16AD-MmRXRE: The wild-type D, E, and F domains from spruce budworm Choristoneura fumiferana EcR (“CfEcR-DEF”; SEQ ID NO: 1) were fused to a GAL4 DNA binding domain (“Gal4DBD1-147”; nucleotides 31 to 471 of SEQ ID NO: 2) and placed under the control of the SV40e promoter of pM vector (PT3119-5, Clontech, Palo Alto, Calif.). The D and E domains from Mus Musculus RXR (“MmRXR-DE”; SEQ ID NO: 22) were fused to the transactivation domain from VP16 (“VP16AD”; SEQ ID NO: 5) and placed under the control of the SV40e promoter of the pVP16 vector (PT3127-5, Clontech, Palo Alto, Calif.).
CHO cells were transiently transfected with transcription cassettes for GAL4 DBD-CfEcR(DEF) and for VP16AD-MmRXRE controlled by SV40e promoters. Stably transfected cells were selected using Hygromycin. Individually isolated CHO cell clones were transiently transfected with a GAL4 RE-luciferase reporter (pFR-Luc, Stratagene, La Jolla, Calif.). The 13B3 clone was selected using Zeocin.
Cells were trypsinized and diluted to a concentration of 2.5×10^4 cells mL. 100 μL of cell suspension was placed in each well of a 96 well plate and incubated at 37° C. under 5% CO2 for 24 h. Ligand stock solutions were prepared in DMSO and diluted 300 fold for all treatments.
Luciferase reporter gene expression was measured 48 h after cell treatment using Bright-Glo™ Luciferase Assay System from Promega (E2650). Luminescence was detected at room temperature using a Dynex MLX microtiter plate luminometer.
Each assay was conducted in two separate wells, and the two values were averaged. Fold inductions were calculated by dividing relative light units (“RLU”) in ligand treated cells with RLU in DMSO treated cells.

[3] = target: T4, GAL4AaEcR-DEF/VP16HsRXRβ-EF (Aedes aegypti, UniProt P49880); test: Transactivation reporter assay, AaEcR based switch (1.4) in NIH3T3 cells; format: cell-based; details: mammalian cells; FIGS. 2-5
T4 construct: expressed in transfected cells; host or cells: mouse NIH3T3 cells
T4 sequence (P49880 405-776 limits assumed): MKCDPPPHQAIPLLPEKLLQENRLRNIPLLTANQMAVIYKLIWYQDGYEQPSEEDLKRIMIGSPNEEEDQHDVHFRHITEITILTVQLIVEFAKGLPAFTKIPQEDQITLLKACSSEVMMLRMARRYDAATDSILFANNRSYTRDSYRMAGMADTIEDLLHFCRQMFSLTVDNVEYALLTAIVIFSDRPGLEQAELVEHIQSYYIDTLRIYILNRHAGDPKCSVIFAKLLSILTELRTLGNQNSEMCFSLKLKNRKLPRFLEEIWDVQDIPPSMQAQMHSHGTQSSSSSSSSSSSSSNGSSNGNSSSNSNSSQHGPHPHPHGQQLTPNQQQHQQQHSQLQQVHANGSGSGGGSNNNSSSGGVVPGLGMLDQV
T4 sequence (P28702 299-533 partner limits assumed): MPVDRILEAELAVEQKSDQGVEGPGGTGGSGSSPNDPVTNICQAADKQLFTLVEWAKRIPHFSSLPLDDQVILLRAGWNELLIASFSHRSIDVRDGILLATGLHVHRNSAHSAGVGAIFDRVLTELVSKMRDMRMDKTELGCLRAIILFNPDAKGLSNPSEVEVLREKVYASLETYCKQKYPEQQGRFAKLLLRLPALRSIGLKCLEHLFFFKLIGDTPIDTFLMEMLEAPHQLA
Protocol: Total relative light units (RLU) are shown.
Twenty μl of lysate were assayed.

`C[C@H]1C[C@H](Nc2ccc(F)cc2)c2cc(F)ccc2N1C(=O)c1ccc(F)c(Cl)c1` (relative stereo) [Compound I-6, trans-1-(3-chloro-4-fluorobenzoyl)-6-fluoro-2-methyl-4-(4-fluoroanilino)-1,2,3,4-tetrahydroquinoline] was tested, and the fold induction at 33 µM (Gal4DBD/AaEcR (DEF)) was 86, the fold induction at 33 µM [1] was 1 and the “Fold Induction (10 μM)” value (CfEcR + LmUSP) was 2 fold. It also gave a fold induction at 10 µM (DmEcR + LmUSP) of 2 and a fold induction at 100 µM (DmEcR + LmUSP) of 4.
In the case of `C[C@@H]1C[C@H](Nc2ccc(F)cc2)c2cc(F)ccc2N1C(=O)c1ccc(F)c(Cl)c1` (relative stereo) [Compound I-7, cis-1-(3-chloro-4-fluorobenzoyl)-6-fluoro-2-methyl-4-(4-fluoroanilino)-1,2,3,4-tetrahydroquinoline], the fold induction at 33 µM (Gal4DBD/AaEcR (DEF)) is reported as 357, the fold induction at 33 µM [1] is reported as 32 and the “Fold Induction (10 μM)” value (CfEcR + LmUSP) is reported as 94 fold. For the same compound, the fold induction at 10 µM (DmEcR + LmUSP) was 14 and the fold induction at 100 µM (DmEcR + LmUSP) was 8.
In the case of `Cc1cc(C(=O)N2c3ccc(F)cc3[C@@H](Nc3ccc(F)cc3)C[C@@H]2C)ccc1F` (relative stereo) [Compound I-13], the “Fold Induction Average, 13B3V1 Assay 33 μM” value [2] is reported as 4 fold, the “Fold Induction Average, AA_3T3V1 Assay 33 μM” value (Gal4DBD/AaEcR (DEF)) is reported as 189 fold and the “Fold Induction Average, Z3V1 Assay 33 μM” value [1] is reported as 105 fold. The “Activity on AaEcR based switches” value [3] was “very active”.
With `Cc1ccc(C(=O)N2c3ccc(F)cc3[C@H](Nc3ccc(F)cc3)C[C@@H]2C)cc1F` (relative stereo) [Compound I-14] the “Fold Induction Average, 13B3V1 Assay 33 μM” value [2] was 2 fold, the “Fold Induction Average, AA_3T3V1 Assay 33 μM” value (Gal4DBD/AaEcR (DEF)) was 518 fold and the “Fold Induction Average, Z3V1 Assay 33 μM” value [1] was 7 fold. For the same compound, the “Activity on AaEcR based switches” value [3] was “very active”.

Reference: patent US20050228016A1, “TETRAHYDROQUINOLINES FOR MODULATING THE EXPRESSION OF EXOGENOUS GENES VIA AN ECDYSONE RECEPTOR COMPLEX” (priority 2002, published 2005)
